According to patent US20240182465A1 (GENFLEET THERAPEUTICS (SHANGHAI) INC., priority 2021, published 2024):

Legend:
HPK1 [1] = biological target: T1, HPK1 (Homo sapiens, UniProt Q92918); experiment: HPK1 kinase activity assay (ADP-Glo); conditions: HPK1 Kinase activity IC50 (nM), 1 nM HPK1, 10 μM ATP, 0.1 μg/μL MBP
T1 sequence (Q92918 1-346 limits assumed): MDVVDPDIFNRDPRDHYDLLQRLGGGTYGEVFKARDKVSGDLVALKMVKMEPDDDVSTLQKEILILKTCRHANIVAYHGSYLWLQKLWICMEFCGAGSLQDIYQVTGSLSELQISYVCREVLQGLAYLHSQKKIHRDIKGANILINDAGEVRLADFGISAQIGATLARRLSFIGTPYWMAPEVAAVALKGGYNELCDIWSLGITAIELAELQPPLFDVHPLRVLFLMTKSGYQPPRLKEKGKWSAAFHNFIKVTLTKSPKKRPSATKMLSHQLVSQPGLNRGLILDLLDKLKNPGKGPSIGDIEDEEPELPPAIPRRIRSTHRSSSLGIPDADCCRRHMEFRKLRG

HPK1 [2] = biological target: HPK1 (Homo sapiens, UniProt Q92918); experiment: SLP76 phosphorylation assay (intracellular HPK1 inhibitory activity, p-SLP76 Ser376 sandwich ELISA); conditions: p-SLP76 IC50(nM), Jurkat, Clone E6-1 cells; 1 h compound pre-incubation, anti-CD3 beads stimulation 20 min; SLP76 phosphorylation at S376
Target sequence in this assay (Q92918 whole entry): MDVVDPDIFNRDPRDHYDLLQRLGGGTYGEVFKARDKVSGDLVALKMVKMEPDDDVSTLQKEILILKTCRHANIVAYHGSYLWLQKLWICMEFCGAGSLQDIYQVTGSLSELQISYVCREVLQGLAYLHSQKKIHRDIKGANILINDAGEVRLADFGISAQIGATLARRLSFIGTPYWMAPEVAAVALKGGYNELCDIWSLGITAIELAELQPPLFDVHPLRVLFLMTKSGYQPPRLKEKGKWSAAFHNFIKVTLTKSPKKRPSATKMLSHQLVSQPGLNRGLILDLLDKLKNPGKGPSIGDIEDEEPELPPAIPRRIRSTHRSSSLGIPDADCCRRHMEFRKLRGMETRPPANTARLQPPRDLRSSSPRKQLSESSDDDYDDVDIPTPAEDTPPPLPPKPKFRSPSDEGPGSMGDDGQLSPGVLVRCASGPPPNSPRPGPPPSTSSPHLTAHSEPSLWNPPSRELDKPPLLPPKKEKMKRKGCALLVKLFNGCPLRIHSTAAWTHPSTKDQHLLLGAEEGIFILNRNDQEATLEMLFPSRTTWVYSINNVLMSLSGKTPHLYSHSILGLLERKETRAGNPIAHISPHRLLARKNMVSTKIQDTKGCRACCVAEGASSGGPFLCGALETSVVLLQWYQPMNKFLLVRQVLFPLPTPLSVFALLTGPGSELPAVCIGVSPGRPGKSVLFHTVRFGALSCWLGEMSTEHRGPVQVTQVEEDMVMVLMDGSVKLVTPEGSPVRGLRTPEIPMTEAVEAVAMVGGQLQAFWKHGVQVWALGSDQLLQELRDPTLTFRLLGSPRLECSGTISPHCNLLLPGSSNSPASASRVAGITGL

IC50 (HPK1 [1])	IC50 (HPK1 [2])	Structure (SMILES)
3.11 nM	1080 nM	CC(C)c1c[nH]c2ncc(-c3cc(C4CCCN4)c4cnccc4c3)cc12 (stereo not shown) [Compound Z95, 6-(3-isopropyl-1H-pyrrolo[2,3-b]pyridin-5-yl)-8-(pyrrolidin-2-yl)isoquinoline]
4.13 nM	1000 nM	FC(F)(F)c1c[nH]c2ncc(-c3cc(C4CCCN4)c4cnccc4c3)cc12 (stereo not shown) [Compound Z96, 6-(3-(trifluoromethyl)-1H-pyrrolo[2,3-b]pyridin-5-yl)-8-(pyrrolidin-2-yl)isoquinoline]
1.54 nM	377 nM	Cc1c[nH]c2ncc(-c3cc4c(c(C5CCCN5)c3)COCC4)cc12 (stereo not shown) [Compound Z97, 3-methyl-5-(8-(pyrrolidin-2-yl)isochroman-6-yl)-1H-pyrrolo[2,3-b]pyridine]
0.49 nM	163 nM	N#CCc1c[nH]c2ncc(-c3cc4c(c(C5CCCN5)c3)COCC4)cc12 (stereo not shown) [Compound Z101, 2-(5-(8-(pyrrolidin-2-yl)isochroman-6-yl)-1H-pyrrolo[2,3-b]pyridin-3-yl)acetonitrile]
2.65 nM	545 nM	Cc1c[nH]c2ncc(-c3cc4c(c(CN(C)C)c3)COCC4)cc12 [Compound Z103, N,N-dimethyl-1-(6-(3-methyl-1H-pyrrolo[2,3-b]pyridin-5-yl)isochroman-8-yl)methanamine]
0.29 nM	77 nM	CC(C#N)c1c[nH]c2ncc(-c3cc4c(c([C@@H]5CCCN5)c3)COCC4)cc12 (stereo partly drawn) [Compound Z104, 2-(5-(8-((S)-pyrrolidin-2-yl)isochroman-6-yl)-1H-pyrrolo[2,3-b]pyridin-3-yl)propanenitrile]
0.53 nM	133 nM	Cc1c[nH]c2ncc(-c3cc4c(c([C@@H]5CCCN5)c3)COCC4)nc12 [Compound Z106, (S)-7-methyl-2-(8-(pyrrolidin-2-yl)isochroman-6-yl)-5H-pyrrolo[2,3-b]pyrazine]
5.79 nM	525 nM	CN(C)Cc1cc(-c2cnc3[nH]cc(C(=O)NCC4(CO)CCC4)c3c2)cc2c1COCC2 [Compound Z107, 5-(8-((dimethylamino)methyl)isochroman-6-yl)-N-((1-(hydroxymethyl)cyclobutyl)methyl)-1H-pyrrolo[2,3-b]pyridine-3-carboxamide]
4.12 nM	571 nM	Cc1c[nH]c2ncc(-c3cc4c(c(C(C)N(C)C)c3)COCC4)cc12 (stereo not shown) [Compound Z108-1, N,N-dimethyl-1-(6-(3-methyl-1H-pyrrolo[2,3-b]pyridin-5-yl)isochroman-8-yl)ethan-1-amine]
9.78 nM	1060 nM	Cc1c[nH]c2ncc(-c3cc4c(c(CN5CCCC5)c3)COCC4)cc12 [Compound Z109, 3-methyl-5-(8-(pyrrolidin-1-ylmethyl)isochroman-6-yl)-1H-pyrrolo[2,3-b]pyridine]
26.9 nM	2840 nM	CCN(CC)Cc1cc(-c2cnc3[nH]cc(C)c3c2)cc2c1COCC2 [Compound Z110, N-ethyl-N-((6-(3-methyl-1H-pyrrolo[2,3-b]pyridin-5-yl)isochroman-8-yl)methyl)ethanamine]
5.81 nM	815 nM	Cc1c[nH]c2ncc(-c3cc4c(c(CNC(C)C)c3)COCC4)cc12 [Compound Z111, N-((6-(3-methyl-1H-pyrrolo[2,3-b]pyridin-5-yl)isochroman-8-yl)methyl)propan-2-amine]
3.55 nM	305 nM	Cc1c[nH]c2ncc(-c3cc4c(c(CNCC5CC5)c3)COCC4)cc12 [Compound Z112, 1-cyclopropyl-N-((6-(3-methyl-11H-pyrrolo[2,3-b]pyridin-5-yl)isochroman-8-yl)methyl)methanamine]
1.54 nM	358 nM	CC(=O)N1CCc2cc(-c3cnc4[nH]cc(C)c4c3)cc(C3COCCN3)c2C1 (stereo not shown) [Compound Z119]
0.5 nM	185 nM	COCC(=O)N1CCc2cc(-c3cnc4[nH]cc(C)c4c3)cc([C@@H]3CCCN3)c2C1 [Compound Z121, (S)-1-(6-(3-methyl-1H-pyrrolo[2,3-b]pyridin-5-yl)-8-(pyrrolidin-2-yl)-3,4-dihydroisoquinolin-2(1H)-yl)methoxyethyl ketone]
0.71 nM	179 nM	Cc1c[nH]c2ncc(-c3cc4c(c([C@@H]5CCCN5)c3)CN(C(=O)C3CC3)CC4)cc12 [Compound Z122, (S)-1-(6-(3-methyl-1H-pyrrolo[2,3-b]pyridin-5-yl)-8-(pyrrolidin-2-yl)-3,4-dihydroisoquinolin-2(1H)-yl)cyclopropyl methyl ketone]
1.35 nM	343 nM	Cc1c[nH]c2ncc(-c3cc4c(c([C@@H]5CCCN5)c3)CN(C(=O)c3ccccc3)CC4)cc12 [Compound Z123]
0.33 nM	260 nM	Cc1c[nH]c2ncc(-c3cc4c(c([C@@H]5CCCN5)c3)CN(C(=O)c3ccncc3)CC4)cc12 [Compound Z124, (S)-(6-(3-methyl-1H-pyrrolo[2,3-b]pyridin-5-yl)-8-(pyrrolidin-2-yl)-3,4-dihydroisoquinolin-2(1H)-yl) (pyridin-4-yl)methanone]
1.43 nM	301 nM	Cc1c[nH]c2ncc(-c3cc4c(c([C@@H]5CCCN5)c3)CN(C(=O)C3CCCCC3)CC4)cc12 [Compound Z125]
0.58 nM	204 nM	Cc1c[nH]c2ncc(-c3cc4c(c([C@@H]5CCCN5)c3)CN(C(=O)C3CCOCC3)CC4)cc12 [Compound Z127]
7.54 nM	664 nM	Cc1c[nH]c2ncc(-c3cc4c(c([C@@H]5CCCN5)c3)CN(CC(F)(F)F)CC4)cc12 [Compound Z131, (S)-6-(3-methyl-1H-pyrrolo[2,3-b]pyridin-5-yl)-8-(pyrrolidin-2-yl)-2-(2,2,2-trifluoroethyl)-1,2,3,4-tetrahydroisoquinoline]
31.2 nM	7910 nM	Cc1c[nH]c2ncc(-c3cc([C@@H]4CCCN4)c4ccccc4n3)cc12 [Compound Z136, (S)-2-(3-methyl-1H-pyrrolo[2,3-b]pyridin-5-yl)-4-(pyrrolidin-2-yl)quinoline]
0.37 nM	159 nM	N#CC1(c2c[nH]c3ncc(-c4cc5c(c([C@@H]6CCCN6)c4)COCC5)cc23)CC1 [Compound Z137, (S)-1-(5-(8-(pyrrolidin-2-yl)isochroman-6-yl)-1H-pyrrolo[2,3-b]pyridin-3-yl)cyclopropane-1-carbonitrile]
0.81 nM	132 nM	CCN1Cc2c(cc(-c3cnc4[nH]cc(C)c4c3)cc2[C@@H]2CCCN2)CC1=O [Compound Z138, (S)-2-ethyl-6-(3-methyl-1H-pyrrolo[2,3-b]pyridin-5-yl)-8-(pyrrolidin-2-yl)-1,4-dihydroisoquinolin-3(2H)-one]
0.39 nM	159 nM	CC(=O)N1CCc2c(cc(-c3cnc4[nH]cc(C)c4c3)cc2[C@@H]2CCCN2)C1 [Compound Z139, (S)-1-(7-(3-methyl-1H-pyrrolo[2,3-b]pyridin-5-yl)-5-(pyrrolidin-2-yl)-3,4-dihydroisoquinolin-2(1H)-yl)ethan-1-one]
2.52 nM	739 nM	Cc1c[nH]c2ncc(-c3cc4c(c([C@@H]5CCCN5)c3)COC4)cc12 [Compound Z151-1, (S)-3-methyl-5-(7-(pyrrolidin-2-yl)-1,3-dihydroisobenzofuran-5-yl)-1H-pyrrolo[2,3-b]pyridine]
34.2 nM	3760 nM	Cc1c[nH]c2ncc(-c3cc4c(c(CN(C)C)c3)C(=O)N(C)CC4)cc12 [Compound Z186, 8-((dimethylamino)methyl)-2-methyl-6-(3-methyl-1H-pyrrolo[2,3-b]pyridin-5-yl)-3,4-dihydroisoquinolin-1(2H)-one]
1.89 nM	494 nM	N#Cc1c[nH]c2ncc(-c3cc4c(c([C@@H]5CCCN5)c3)COCC4)cc12 [Compound Z190, (S)-5-(8-(pyrrolidin-2-yl)isochroman-6-yl)-1H-pyrrolo[2,3-b]pyridine-3-carbonitrile]
0.32 nM	117 nM	c1cncc(-c2c[nH]c3ncc(-c4cc5c(c([C@@H]6CCCN6)c4)COCC5)cc23)c1 [Compound Z199, (S)-3-(pyridin-3-yl)-5-(8-(pyrrolidin-2-yl)isochroman-6-yl)-1H-pyrrolo[2,3-b]pyridine]
0.62 nM	227 nM	Cc1c[nH]c2ncc(-c3cc4c(c([C@@H]5CCCN5)c3)CN(C(=O)c3cccnc3)CC4)cc12 [Compound Z210, (S)-1-(6-(3-methyl-1H-pyrrolo[2,3-b]pyridin-5-yl)-8-(pyrrolidin-2-yl)-3,4-dihydroisoquinolin-2(1H)-yl)(pyridin-3-yl)methanone]

Structure (SMILES)	IC50 (HPK1 [1])	IC50 (HPK1 [2])
CC(=O)N1CCc2cc(-c3cnc4[nH]cc(C)c4c3)cc(C3CCCN3)c2C1 (stereo not shown) [Compound Z98, 1-(6-(3-methyl-1H-pyrrolo[2,3-b]pyridin-5-yl)-8(pyrrolidin-2-yl)-3,4-dihydroisoquinolin-2(1H)-yl)ethanone]	0.9 nM	237 nM
Cc1c[nH]c2ncc(-c3cc4c(c(CN5CC6CCC(C5)N6C)c3)COCC4)cc12 [Compound Z113, 3-methyl-5-(8-((8-methyl-3,8-diazabicyclo[3.2.1]octan-3-yl)methyl)isochroman-6-yl)-1H-pyrrolo[2,3-b]pyridine]	62.2 nM	10000 nM
